Assay results published in US8017620B2, “Dutpase inhibitors” (Medivir AB, priority 2004, dated 2011).
Read-outs that look alike come from different tables or passages of the source.

Columns and labels:
[1] = target: T1, Plasmodium falciparum dUTPase (Plasmodium falciparum, UniProt Q8II92); experiment: Inhibition of Plasmodium falciparum dUTPase (malaria enzyme assay); format: biochemical
T1 construct: made in house; host or cells: E. coli BL21 (DE3)
T1 sequence (Q8II92 1-173): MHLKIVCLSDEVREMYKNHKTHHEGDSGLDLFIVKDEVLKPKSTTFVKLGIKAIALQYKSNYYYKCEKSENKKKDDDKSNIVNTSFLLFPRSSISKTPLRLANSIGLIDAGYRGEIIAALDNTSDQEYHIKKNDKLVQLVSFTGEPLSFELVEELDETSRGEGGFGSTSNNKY
Procedure: Inhibition of Plasmodium falciparum dUTPase
2′-dUTP, was purchased from Pharmacia. MgCl2, BSA, and the pH indicator cresol red were from Sigma. The buffer N,N-bis(2-hydroxyethyl)glycine (BICINE) was obtained from USB (United States Biochemical), Ohio. All the concentrations of nucleotides were calculated spectrophotometrically (HP-8453, Hewlett Packard) at 280 nm, using the extinction coefficient (ε280 nm=1.75 ml mg^−1cm^−1). Other chemicals used in these experiments were of the highest quality available.
Conserved motifs of the human dUTPase enzyme were used as query to identify the PFdut gene in the www.tigr.org database of the Plasmodium falciparum 3D7 strain. The entire coding sequence was amplified by the PCR using as template cDNA and as primers the oligonucleotides ATG-PFdut ([…]) and TGA-PFdut ([…]) which were designed so that NdeI and BamHI restriction sites were introduced at the 5′ and 3′ ends for convenient cloning in the expression vector pET11 (Stratagene). The amplified product was cloned into pGEMT (Promega) and propagated in E. coli XL1B cells. In order to confirm the correct sequence after amplification, sequencing was performed using an Applied Biosystems Automated Sequencer, at the Analytical Services of the Instituto de Parasitología y Biomedicina “López Neyra”. These Services also supplied the oligonucleotides designed for the sequencing
Recombinant P. falciparum dUTPase was purified from E. coli BL21 (DE3) cells transformed with pET-PFdut. Pellets from a liter of culture were resuspended in a solution consisting of buffer A (20 mM MES pH 5.5, 50 mM NaCl, 1 mM DTT) plus the protease inhibitors 1 mM PMSF, 20 μg/ml leupeptin and 1 mM benzamidine. Purification was carried out in a cold room (4° C.). The soluble crude extract was obtained by sonication in a Vibra-cell (Sonics and Materials Inc. Danbury, Conn., USA) and centrifugation at 14000×g. The extract was loaded onto a phosphocellulose column (Whatman) pre-equilibrated with buffer A at a flow rate of 1 ml/min. After washing the column with 100 ml of buffer A, elution was performed using a linear NaCl gradient of 50 to 1000 mM. Peak fractions with a low concentration of contaminating protein, as judged by 15% SDS-PAGE gels, were pooled and then loaded and chromatographed on a Superdex 200 column at a flow rate of 0.5 ml/min. The column was equilibrated with buffer B (50 mM Bicine, 1 mM DTT, 10 mM MgCl2). Peak fractions were pooled and concentrated to about 5 mg/ml by ultrafiltration in a Centripep tube (Amicon) and stored at −80° C.
Nucleotide hydrolysis was monitored by mixing enzyme and substrate with a rapid kinetic accessory (Hi-Tech Scientific) attached to a spectrophotometer (Cary 50) and connected to a computer for data acquisition and storage. Protons, released through the hydrolysis of nucleotides, were neutralised by a pH indicator in a weak buffered medium with similar pKa and monitored spectrophotometrically at the absorbance peak of the basic form of the indicator. Absorbance changes were kept within 0.1 units. The indicator/buffer pair used was cresol red/BICINE ([…], pH 8, 573 nm). The measurements were performed at 25° C., and the solutions were previously degassed. […] Indicator absorbance changes corresponding to complete hydrolysis of nucleotides were recorded in the computer, and the kinetic parameters Vmax and Kmapp (or slope) were calculated by fitting the data to the integrated Michaelis-Menten equation (Segel, 1975). […]

[2] = target: T2, Human recombinant dUTPase (Homo sapiens, UniProt P33316); experiment: Human dUTPase assay; format: biochemical; conditions: human enzyme versus Plasmodium falciparum enzyme
T2 construct: made in house; host or cells: E. coli BL21 (DE3)
T2 sequence (P33316 112-252 limits assumed): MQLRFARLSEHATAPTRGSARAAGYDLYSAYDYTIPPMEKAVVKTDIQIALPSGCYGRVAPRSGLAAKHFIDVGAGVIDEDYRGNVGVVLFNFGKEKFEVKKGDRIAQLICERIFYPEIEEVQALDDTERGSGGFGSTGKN
Procedure: Human recombinant dUTPase was purified from E. coli BL21 (DE3) cells transformed with pETHudut (Dr. P. O. Nyman, Lund University). Purification was accomplished as described for the dUTPase above except that the last step in Superdex 200 was omitted. Likewise, conditions for enzyme assays were the same as described above except that the enzyme concentration was 50 nM.

P. falciparum = experiment: Malaria whole cell assay (3H-hypoxanthine incorporation); format: cell-based; conditions: Plasmodium falciparum cell culture; read-out: ED50 (the source's name)
Procedure: Two strains of P. falciparum are used in this study: The drug sensitive NF54 (an airport strain of unknown origin) and K1 (Thailand, chloroquine and pyrimethamine resistant). The strains are maintained in RPMI-1640 medium with 0.36 mM hypoxanthine supplemented with 25 mM HEPES, 25 mM NaHC03, neomycin (100 U/ml) and Albumax^R (lipid-rich bovine serum albumin) (GIBCO, Grand Island, N.Y.) (5 g/l), together with 5% washed human A+ erythrocytes. All cultures and assays are conducted at 37° C. under an atmosphere of 4% C02, 3% 02 and 93% N2. Cultures are kept in incubation chambers filled with the gas mixture. Subcultures are diluted to a parasitaemia of 0.1-0.5% and the medium changed daily.
Antimalarial activity is assessed using an adaptation of the procedures described by Desjardins et al. (Antimicrob. Agents Chemother. 16(6):710-8, 1979), and Matile and Pink (In: Lefkovits, I. and Pernis, B. (Eds.). Immunological Methods. Academic Press, San Diego, pp. 221-234, 1990).
After use the stocks are kept at −20° C. The compound is further diluted to the appropriate concentration using complete medium without hypoxanthine.
Assays are performed in sterile 96-well microtiter plates, each well containing 200 μl of parasite culture (0.15% parasitemia, 2.5% hematocrit) with or without serial drug solutions. Seven 2-fold dilutions are used covering a range from 5 μg/ml 0.078 μg/ml.
After 48 hours of incubation at 37° C., 0.5 μCi ^3H-hypoxanthine is added to each well. Cultures are incubated for a further 24 h before they are harvested onto glass-fiber filters and washed with distilled water. The radioactivity is counted using a Betaplate™ liquid scintillation counter (Wallac, Zurich, Switzerland). […] From the sigmoidal inhibition curves IC50 values are calculated.
K1 strain is used. The compounds are tested at 7 concentrations (5000 to 78 ng/ml). Artemisinin and chloroquine are included as reference drugs.
A new range of concentrations is chosen depending on the IC50 determined (e.g. 100 to 1.56 ng/ml) and the assay is carried out 2× independently.
The standard drugs are chloroquine and artemisinin which are run in the same assay.

Leishmania dUTPase = Leishmania dUTPase (Leishmania major, UniProt O15826); conditions: Hidalgo-Zarco and González-Pacanowska 2001; cited from earlier work
Leishmania dUTPase, sequence (O15826 entry or part of it): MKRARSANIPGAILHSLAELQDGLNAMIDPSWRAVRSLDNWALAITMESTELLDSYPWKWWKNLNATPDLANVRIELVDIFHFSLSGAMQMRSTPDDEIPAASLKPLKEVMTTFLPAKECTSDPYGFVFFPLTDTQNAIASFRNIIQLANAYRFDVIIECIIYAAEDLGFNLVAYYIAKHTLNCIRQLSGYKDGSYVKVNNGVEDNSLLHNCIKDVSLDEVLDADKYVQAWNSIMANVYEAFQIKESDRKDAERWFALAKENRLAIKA

[3] = Plasmodium falciparum enzyme, read-out: Ki

O=c1ccn(CCCCNC(c2ccccc2)(c2ccccc2)c2ccccc2)c(=O)[nH]1
Ki [1, 3]: 900 nM | SI (selectivity over the human enzyme) [2]: 1111 | EC50 (P. falciparum): 3800 nM

O=c1ccn(CCCCCNC(c2ccccc2)(c2ccccc2)c2ccccc2)c(=O)[nH]1
Ki [1, 3]: 4290 nM | SI (selectivity over the human enzyme) [2]: >233 | EC50 (P. falciparum): 2200 nM

O=c1ccn(COCCOC(c2ccccc2)(c2ccccc2)c2ccccc2)c(=O)[nH]1
Ki [1]: 670 nM | SI (selectivity over the human enzyme) [2]: 25.3 | EC50 (P. falciparum): 900 nM

O=c1ccn(CCCCOC(c2ccccc2)(c2ccccc2)c2ccccc2)c(=O)[nH]1
Ki [1]: 1620 nM | SI (selectivity over the human enzyme) [2]: 617 | EC50 (P. falciparum): 4900 nM

O=c1ccn(CCCCO[Si](c2ccccc2)(c2ccccc2)c2ccccc2)c(=O)[nH]1
Ki [1]: 1690 nM | SI (selectivity over the human enzyme) [2]: 226 | EC50 (P. falciparum): 430 nM

COc1ccc(C(OC[C@H]2O[C@@H](n3ccc(=O)[nH]c3=O)C[C@@H]2O)(c2ccccc2)c2ccc(OC)cc2)cc1 [5′-O-(4-4′-dimethoxytrityl)-2′-deoxyuridine]
inhibition of Leishmania dUTPase (Leishmania dUTPase): no inhibition

O=c1ccn([C@H]2C[C@H](O)[C@@H](COP(=O)(O)NP(=O)(O)OP(=O)(O)O)O2)c(=O)[nH]1 [α-β-imido-dUTP]
inhibition of Leishmania dUTPase (Leishmania dUTPase): Competitive inhibition
